# Marks after values point to notes of the source that are not given here.
# What was measured:
# mongrel male mice [1] = assay: Average lifetime of mice in a closed volume (hypoxia); type: in vivo; conditions: without preliminary hypoxia, oral 2 hours before hypoxia, 300 mg/kg
# Procedure: (§1) The tests of determining average lifetime of animals in a closed volume and on the model of acute hypobaric hypoxia at the minimum atmospheric rarefaction (170-185 mm Hg) were used to study antihypoxic activity of the compunds of general formula (I).
# Mice were one by one placed into sealed glass jars and their lifetime was recorded.
# The experiment was carried out on 90 mongrel male mice having initial body mass 20 ± 0,5 g housed in cages by 10 animals and given a standard vivarium ration. Average lifetime of mice in closed vessels having volume 250 ml was preliminarily determined and it was 22 to 25 minutes. All the groups included 10 animals each.
# Experimental protocol: • a) - preliminary hypoxia for 12 minutes; • b) - first administration of a compound immediately following preliminary hypoxia; • c) - second administration of a compound in 24 hours after the first one, then daily for three days; • d) - recording lifetime of animals under hypoxic conditions in a sealed space 2 hours after the last administration of a compound.
# The test compounds were dissolved in distilled water and orally administered to animals for 5 days.
# Experimental groups: • Group 1 -(control) - without preliminary hipoxia with oral administration of distilled water for 5 days; • Groups 2 and 3 - administration of the compound XLIV using two doses 50 and 500 µg respectively; • Group 4 - oral administration of sodium oxybutyrate at a dose […] 2 hours before hypoxia; • Group 5 -(control)- with preliminary hypoxia for 12 minutes with subsequent administration of distilled water for 5 days; • Groups 6 and 7 - administration of the compound XLIV using two doses 50 and 500 µg respectively; • Groups 8 and 9 - administration of the compound III using two doses 50 and 500 µg respectively.
# mongrel mice = assay: Acute hypobaric hypoxia model (AHBH); type: in vivo; conditions: single administration, 300,000 µg/kg
# Procedure: as §1
# Simulation of AHBH was done in a flow-through chamber at temperature 22°C. Experiments were carried out on mongrel mice with initial body mass 20 g at the minimum rarefaction 170-185 mm Hg, that corresponds to the altitude of 10500-11000 m. Lift rate was 35 m/second. Each group included 15 animals. Compounds were administered orally, lift on to altitude was performed 2 hours after the last administration.
# Groups of animals: • Group 1 - intact control -administration of normal saline four times. • Groups 2 and 3 - administration of the compound III at doses 50 and 500 µg/kg for 4 days. • Group 4 - single administration of sodium oxybutyrate at a dose […].
# mongrel male mice [2] = assay: Passive cutaneous anaphylaxis reaction; type: in vivo; conditions: PCA, oral 3 days, 10 µg/kg
# Procedure: Experiments were carried out on mongrel male mice with initial body mass 22-24 g. Each group included 10 animals. Sensibilization of animals was accomplished by intradermal injection of 20-30 µl of the serum of mice obtained from preliminaryly immunized animals comprising reagent antibodies against chicken ovalbumin (OVA). […] In 48 hours after sensibilzation an anaphylaxis-provoking OVA dose (1 mg and 0,2 ml Evans blue in 0.2 ml normal saline) were intravenously injected to mice. Passive cutaneous anaphylaxis reaction intensity (PCA) was determined in 30 minutes by the size (area) of a blue spot on the internal skin surface in the site of reagent anibodies' administration. Spot size was measured in two mutually perpendicular directions and the result was expressed in mm^2.
# peritoneal mast cells = assay: Histamine secretion by peritoneal mast cells of sensitized rats; type: in vivo, Wistar male rats; conditions: intraperitoneal 3 days; for Stimulated secretion, percent: OVA-stimulated
# Procedure: Effects on histamine release. […] 2 ml of cellular suspension containing 0.1-0.2 x 10^6 MC/ml were incubated in the presence of […] OVA. Histamine secretion was expressed in percent to its total level. Histamine amount in samples was determined using spectrofluorimetric method [Short P.A., Burkhalter A., Cohn V.N. A method for fluorimetric assay of histamine in tissues. J. Pharmacol. Exper.
# Animals of the control group were intraperitonelly injected normal saline (group 1). Each group included 10 animals.
# hydroxyl radical = assay: Hydroxyl radical formation in the Fenton reagent (chemiluminescence); type: biochemical
# mongrel guinea-pigs = assay: Food anaphylaxis (active anaphylactic shock) in OVA-sensitized guinea pigs; conditions: oral 3 days before provoking anaphylaxis, 50 µg/kg
# [3] = system: Lewis pulmonary carcinoma (LLC); assay: LLC metastasizing with surgical resection of the primary tumor node, alone and with Cyclophosphane; type: in vivo, C57BL/6 female mice; conditions: 96 hour interval, 100 µg/kg
# Procedure: An important property of the compounds is their ability to manifest pharmacological activity on the model with resection of the primary tumor node and not to lower therapeutic efficacy of respective antitumor drugs. […] Surgical resection of the primary tumor node was performed by day 13 following tumor transplantation. The test anitumor compounds were administered according to two dosage regimens:
# Dosage regimen 1 - animals were administered compound III from day 1 till day 13 of experiment at a dose 500 µg/kg (group 1); Cyclophosphane was administered intraperitoneally two times before operation with 96 hour interval at a dose 100 µg/kg (group 2); combined administration of compound III and Cyclophosphane was similar to administration of substances in groups 1 and 2 (group 3). Number of metastases was calculated by day 29 of experiment;
# Dosage regimen 2 - animals were administered compound III from day 14 of experiment (commencement of administration 24 hours post operation) till day 28 (group 4); Cyclophosphane was administered twice post operation with 96 hour interval at a dose 100 µg/kg (group 5); combined administration of compound III and Cyclophosphane similar to administration of substances in groups 4 and 5 (group 6). Antimetastatic efficacy of the drugs was considered by day 29 of experiment.
# [4] = system: peripheral blood neutrophils; assay: Activity of peripheral blood neutrophils in mice with LLC; type: in vivo, C57BL/6 female mice; conditions: Cyclophosphane 5 times 20.0 mg/kg (in 48 hours) for 10 days
# Procedure: Experiments were carried out on C57BL/6 female mice with intramuscularly transplanted LLC carcinoma. Activity of neutrophils was measured by days 11 and 14.
# • control - animals with LLC tumor, 10 animals; • animals with LLC tumor + compound III at a dose 500.0 µg/kg for 10 days. 8 animals; • animals with LLC tumor + Cyclophosphane 5 times at a dose 20.0 mg/kg (in 48 hours) for 10 days, 8 animals; • compound III and Cyclophosphane according to the above dosage regimen, 8 animals.
# Experiment duration was 14 days.
# [5] = regimen 1: intraperitoneally two times before operation
# [6] = regimen 2: twice post operation
compound,measurement,setting,value
"O=C(O)CCCO [sodium oxybutyrate, reference compound]",Lifetime (seconds),mongrel male mice [1],"2103,9±100,5**^1 seconds"
same,Effect in percent,mongrel mice; lifetime relative to control,"119 ± 4,4%"
same,Lifetime under hypoxic conditions (minutes),"mongrel mice; mice, 170-185 mm Hg","364,3 ± 13,5 minutes"
"CN(C)CCN(Cc1ccc(Cl)cc1)c1ccccn1 [Suprastine, reference compound]",Percent of the reaction inhibition,mongrel male mice [2],7.6%
same,"Reaction intensity, mm^2",mongrel male mice [2],82.1 ± 18.1 mm^2
same,"Stimulated secretion, percent",peritoneal mast cells; 1000 µg/kg,7.02%
same,"Histamine level, µg/10^6 MC",peritoneal mast cells; 1000 µg/kg,16.24*^1 µg/10^6 MC
same,"Spontaneous secretion, percent",peritoneal mast cells; 1000 µg/kg,5.62%
"N[C@H](CCC(=O)NCCc1c[nH]cn1)C(=O)O [compound XLV, γ -L-, D-glutamylhistamine]","Stimulated secretion, percent",peritoneal mast cells; 50 µg/kg,"2.32*^1,3%"
same,"Histamine level, µg/10^6 MC",peritoneal mast cells; 50 µg/kg,16.90*^1 µg/10^6 MC
same,"Spontaneous secretion, percent",peritoneal mast cells; 50 µg/kg,"9.63*^1,3%"
same,relative effect: I+/I-,hydroxyl radical; 1 µM,1.0
same,Chemiluminiscence intensity (mV) + σn-1,"hydroxyl radical; 1 µM, control of the series as in the table",7666 ± 101 mV
same,relative effect: I+/I-,hydroxyl radical; 0.01 mM,0.95
same,Chemiluminiscence intensity (mV) + σn-1,"hydroxyl radical; 0.01 mM, control of the series as in the table",7443 ± 267 mV
same,relative effect: I+/I-,hydroxyl radical; 0.1 mM,0.74
same,Chemiluminiscence intensity (mV) + σn-1,"hydroxyl radical; 0.1 mM, control of the series as in the table",5800 ± 247 mV
same,relative effect: I+/I-,hydroxyl radical; 1 mM,0.16
same,Chemiluminiscence intensity (mV) + σn-1,"hydroxyl radical; 1 mM, control of the series 7839 ± 171, 1120 ± 163, 4974 ± 283 or 1332 ± 172",2195 ± 18 mV
same,Anaphylactic index,mongrel guinea-pigs,0.90*
same,Lethality in percent,mongrel guinea-pigs,6.7** percent
same,Seizures in percent,mongrel guinea-pigs,15.5* percent
"O=P1(N(CCCl)CCCl)NCCCO1 (stereo not shown) [Cyclophosphane, reference compound]",Mean number of metastases,[3]; [5],19.5 ± 5.1
same,Metastasizing inhibition percent,[3]; [5],43.9%
same,Metastasizing rate (%),[3]; [5],100%
same,Mean number of metastases,[3]; [6],18.0 ± 4.3
same,Metastasizing inhibition percent,[3]; [6],51.5%
same,Metastasizing rate (%),[3]; [6],100%
same,Percent of active neutrophils,[4]; Background,21.5 ± 3.4%
same,Percent of active neutrophils,[4]; day 11,7.6 ± 2.0%
same,Percent of active neutrophils,[4]; day 14,20.6 ± 6.0%
